Data: patent US20100004234A1, “SPECIFIC KINASE INHIBITORS” (Kosan Biosciences Incorporated, priority 2004, published 2010)
Where two headings read alike, the source gives them in different places. One block for each compound: values may come before it.

Columns and labels:
[1] = test system: COLO829 (Human melanoma, B-Raf V599E); assay: Cell proliferation assay (Cell Titer Glo); format: cell-based
Procedure: (§1) In one illustrative method, cells are treated with various concentrations of the inhibitor in 96 well plates, incubated at 37° C./5% CO2 for three days, and analyzed using the Cell Titer Glo kit (Promega).
(§2) COLO829 is a human melanoma cell line. HT29 is a human colon cancer cell line. Both cell lines have a V600E B-Raf mutation. SKOV3 is an ovarian cancer cell line having wild-type B-Raf. EKR2 (extra-cellular signal regulated kinase 2) is a kinase in the Ras/B-Raf MAP kinase cascade pathway.

[2] = test system: HT29 (Human colon, B-Raf V599E); assay: Cell proliferation assay (Cell Titer Glo); format: cell-based
Procedure: as §1, §2

[3] = test system: SKOV3 (ovarian cancer cell line, wild-type B-Raf); assay: Cell proliferation assay; format: cell-based; details: Homo sapiens, SK-OV-3; Table 7; SKOV3 ovarian cancer, wild-type B-Raf; read-out: Cell Line IC50 SKOV3
Procedure: as §1, §2

ERK2 [4] = target: ERK2 (UniProt P28482); format: biochemical; parameters: "the target Cys 172 residue
Procedure: (§3) In either case, the time dependent inactivation can be dampened by the presence of a competing substrate, in this case ATP.
(§4) For covalent inhibitors, plots of log (activity) versus time provide apparent first-order rate constants (kobsd) of enzyme activity loss. If these assays are performed at varying concentrations of inhibitor, a series of first-order plots is obtained and kobsd obtained at each inhibitor concentration. […] Such molecules may be competitive inhibitors but should not show time-dependent inactivation.
(§5) Inhibition progress curve analysis was performed using continuous, colorimetric, or fluorimetric assays. All experiments were done at 1 mM ATP, with the exception of KDR (at 5 mM ATP).
(§6) MEK1 assays were performed using pre-incubation experiments with radioactive [^32P]ATP and filter binding of product. All other kinases were analyzed using progress curve analysis from a continuous spectrophotometric assay.

MEK1 [5] = target: T1, MEK1 (Homo sapiens, UniProt Q02750); details: cited from earlier work
PKA, PKC or Raf = details: cited from earlier work
[6] = test system: A375 (Human melanoma, B-Raf V599E); assay: Cell proliferation assay (Cell Titer Glo); format: cell-based
Procedure: as §1

[7] = test system: A549 (NSCLC, B-Raf wild-type); assay: Cell proliferation assay (Cell Titer Glo); format: cell-based
Procedure: as §1

[8] = test system: DU4475 (Human breast, B-Raf V599E); assay: Cell proliferation assay (Cell Titer Glo); format: cell-based
Procedure: as §1

[9] = test system: WM266-4 (Human melanoma, B-Raf V599D); assay: Cell proliferation assay (Cell Titer Glo); format: cell-based
Procedure: as §1

MEK1 [10] = target: T1, MEK1; assay: Time-dependent kinase inhibition kinetics (pre-incubation, [32P]ATP filter binding); format: biochemical
Procedure: Typically, one measures the increase in inhibition of protein kinase activity in the presence of inhibitor over time. In one method, aliquots of a “pre-incubation” reaction mixture containing enzyme and inhibitor are assayed for activity (initial velocities) over time; increased inhibition or decreased initial velocities will be observed over time as the Michael adduct forms (Walsh, C, Enzyme Reaction Mechanisms, W.H. Freeman & Co., 1979, pp 86-94). In a second method, the time dependent loss of activity is measured as “progress curves” that measure and analyze product formed (e.g. ADP) versus time (Morrison & Walsh, Adv. Enzymol Relat Areas Mol. Biol. 1988, 61, 201-301). In either case, the time dependent inactivation can be dampened by the presence of a competing substrate, in this case ATP.
MEK1 and many other protein kinases that can be targets of the compounds useful in the methods of the invention can be obtained commercially (Invitrogen; Carlsbad, Calif.) or prepared using standard molecular biology techniques. After activation by phosphorylation, they are assayed for their ability to phosphorylate a target kinase or surrogate substrate. For example, MEK1 can be assayed in a mixture containing MEK1 (30 nM) and ERK1 (2 μM), [γ-^32P]ATP (10 uM) and MgCl2 in Mops buffer pH 7.6. Phosphorylation can be measured by isolating [γ-^32P]-phosphorylated ERK1 on phosphocellulose paper, and counting radioactive product. Alternatively, a coupled enzyme system may be used in which a product of the kinase reaction, such as ADP, is measured by analysis with a secondary system that converts that product (e.g. ADP) to an easily measurable entity (e.g. NADH); often, such coupled systems can be measured by convenient spectrophotometry assays.
To measure time-dependent inhibition using the “pre-incubation method”, MEK1 (or other kinase) is incubated with varying amounts of the lactone inhibitor; […]. Aliquots are removed at various times, added to a solution containing substrates [γ-^32P]ATP, ERK1 (or other substrate), and the other components of the reaction, and initial rates are determined as a measure of remaining enzyme activity.
For covalent inhibitors, plots of log (activity) versus time provide apparent first-order rate constants (kobsd) of enzyme activity loss. If these assays are performed at varying concentrations of inhibitor, a series of first-order plots is obtained and kobsd obtained at each inhibitor concentration. To measure time-dependent inhibition using the “progress-curve method” (see references cited above and Kuzmic et al., Methods Enzymol 2004; 383: 366-81), ERK (or other kinase) is treated with varying amounts of the lactone inhibitor, and the formation of ADP is measured continuously by a coupled assay. […] Such molecules may be competitive inhibitors but should not show time-dependent inactivation.
Those of skill in the art will recognize that within the set of compounds useful in the methods of the invention, significant variability in specificity can be achieved, allowing one to identify optimal compounds for different applications. Inhibition progress curve analysis was performed using continuous, colorimetric, or fluorimetric assays. All experiments were done at 1 mM ATP, with the exception of KDR (at 5 mM ATP).
as §6

ERK2 [11] = target: ERK2 (UniProt P28482); format: biochemical; parameters: Ki; other: ERK2; 1 mM ATP; kinact; T1/2; kinact/Ki; "the target Cys 172 residue; details: ERK2
Procedure: as §3, §4, §5, §6

[12] = test system: EOL-1 (Human leukemia FLP1L1-PDGFRA); assay: Cell proliferation assay (Cell Titer Glo); format: cell-based
Procedure: as §1

[13] = test system: MV4-11 (Human leukemia Flt3-ITD); assay: Cell proliferation assay (Cell Titer Glo); format: cell-based
Procedure: as §1

[14] = test system: P815 (Mouse mastocytoma, KIT D814Y); assay: Cell proliferation assay (Cell Titer Glo); format: cell-based
Procedure: as §1

panel of 120 kinases = details: panel of some 120 kinases; cited from earlier work
[15] = test system: ASZ001 (Basal cell carcinoma); assay: Cell proliferation assay (Cell Titer Glo); format: cell-based
Procedure: as §1

BCCs in Ptc+/− mice = details: topical; cited from earlier work
[16] = test system: ERK1/2 activation in human T cells; details: tested at 0.3 to 3 μM; cited from earlier work
rat MEK1 = rat MEK1 (Rattus norvegicus, UniProt Q01986); details: cited from earlier work
[17] = COLO-829, Table 7, COLO829 human melanoma, V600E B-Raf, read-out: Cell Line IC50 COLO829
[18] = HT-29, Table 7, HT29 human colon cancer, V600E B-Raf, read-out: Cell Line IC50 HT29
[19] = HT29 (Human colon, B-Raf V599E), Tables 1 and 4, read-out: Kinase Inhibitor IC50
[20] = A375 (Human melanoma, B-Raf V599E), Tables 1 and 4, read-out: Kinase Inhibitor IC50
[21] = A549 (NSCLC, B-Raf wild-type), Tables 1 and 4, read-out: Kinase Inhibitor IC50
[22] = DU4475 (Human breast, B-Raf V599E), Tables 1 and 4, read-out: Kinase Inhibitor IC50
[23] = WM266-4 (Human melanoma, B-Raf V599D), Tables 1 and 4, read-out: Kinase Inhibitor IC50

Chain of rat MEK1 (Q01986 whole entry): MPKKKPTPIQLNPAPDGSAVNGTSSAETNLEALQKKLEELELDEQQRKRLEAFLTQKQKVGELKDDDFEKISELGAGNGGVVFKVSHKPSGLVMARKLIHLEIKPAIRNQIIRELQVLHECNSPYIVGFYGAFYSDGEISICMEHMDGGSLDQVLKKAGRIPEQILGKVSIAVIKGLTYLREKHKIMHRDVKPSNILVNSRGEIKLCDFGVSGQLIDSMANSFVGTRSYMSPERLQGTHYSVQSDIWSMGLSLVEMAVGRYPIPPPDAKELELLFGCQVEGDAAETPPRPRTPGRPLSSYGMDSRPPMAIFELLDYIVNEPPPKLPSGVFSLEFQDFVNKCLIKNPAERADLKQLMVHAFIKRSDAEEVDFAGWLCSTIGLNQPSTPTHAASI

Compound: C[C@H]1C/C=C\C(=O)[C@@H](O)[C@@H](O)C[C@H]2O[C@@H]2c2cc(OCC3CCCN(C)C3)cc(O)c2C(=O)O1 (stereo partly shown) [V]
IC50 [1, 17]: 0.079 µM | IC50 [2, 18]: 0.6 µM | IC50 [3]: 15 µM | ERK2 Inhibition kinact. (ERK2 [4]; Table 7): 1 ± 0.1 × 10^−3 sec^−1 | Ki (ERK2 [4]; read-out: ERK2 Inhibition Ki; Table 7): 0.94 ± 0.58 µM

Compound: COc1cc(O)c2c(c1)CCC[C@H](O)[C@H](O)C(=O)/C=C\C[C@H](C)OC2=O [L-783,277]
reduction of the IC50 value for MEK1 by pre-incubation (MEK1 [5]; 60 min. pre-incubation): 10 fold | IC50 (MEK1 [5]; MEK1): 0.004 µM | inhibition of PKA, PKC or Raf (PKA, PKC or Raf): not

Compound: 5,6-Dihydrohypothemycin
IC50 ([1]; COLO829 (Human melanoma, B-Raf V599E), Tables 1 and 4, read-out: Kinase Inhibitor IC50): 3.7 µM | IC50 [2, 19]: 15 µM | IC50 [6, 20]: > 50 µM | IC50 [7, 21]: 107 µM | IC50 [8, 22]: 46 µM | IC50 [9, 23]: 15 µM | kinact/Ki (MEK1 [10]): None | Ki (MEK1 [10]; 1 mM ATP): 3 µM | kinact (MEK1 [10]; 1 mM ATP): None | kinact/Ki (ERK2 [11]): None | kinact (ERK2 [11]; 1 mM ATP): None | Ki (ERK2 [11]; 1 mM ATP, read-out: Ki): 28 µM

IC50 ([1]; COLO-829, COLO829 (Human melanoma, B-Raf V599E), Tables 1 and 4, read-out: Kinase Inhibitor IC50): 7.1 µM | GI50 ([1]; Homo sapiens, COLO-829, melanoma cell line COLO829, read-out: GI50): 7.1 µM | IC50 ([2]; HT-29, HT29 (Human colon, B-Raf V599E), Tables 1 and 4, read-out: Kinase Inhibitor IC50): 4.2 µM | IC50 ([6]; A-375, A375 (Human melanoma, B-Raf V599E), Tables 1 and 4, read-out: Kinase Inhibitor IC50): 5.4 µM | IC50 ([12]; EOL1, EOL-1 (Human leukemia FLP1L1-PDGFRA), read-out: Kinase Inhibitor IC50): 0.0017 µM | GI50 ([13]; Homo sapiens, MV4-11, AML (FLT3 ITD) cell line MV-4-11, read-out: GI50): 0.012 µM | IC50 ([13]; MV4-11 (Human leukemia Flt3-ITD), read-out: Kinase Inhibitor IC50): 0.01 µM | IC50 ([14]; P815 (Mouse mastocytoma, KIT D814Y), read-out: Kinase Inhibitor IC50): 0.32 µM | GI50 ([14]; mouse mastocytoma cell line P815, constitutively active cKIT (D814Y), read-out: GI50): 0.32 µM | IC50 ([9]; WM 266-4, WM266-4 (Human melanoma, B-Raf V599D), Tables 1 and 4, read-out: Kinase Inhibitor IC50): 8.2 µM
Compound: CCN(CC)CCNC(=O)c1c(C)[nH]c(/C=C2\C(=O)Nc3ccc(F)cc32)c1C [SU11248]
IC50 ([8]; DU-4475, DU4475 (Human breast, B-Raf V599E), Tables 1 and 4, read-out: Kinase Inhibitor IC50): 4 µM | number of kinases inhibited (panel of 120 kinases): ~79

IC50 ([15]; ASZ001 (Basal cell carcinoma), read-out: Kinase Inhibitor IC50): 10 µM | IC50 ([15]; BCC cell line ASZ001 in culture, read-out: IC50): ~10 µM
Compound: CCOC(=O)c1ccc(C#Cc2ccc3c(c2)C(C)(C)CCS3)nc1 [Tazarotene]
inhibition of development of BCCs (BCCs in Ptc+/− mice): > 85%

Compound: CNC(=O)c1cc(Oc2ccc(NC(=O)Nc3ccc(Cl)c(C(F)(F)F)c3)cc2)ccn1 [BAY 43-9006, Sorafenib]
GI50 ([1]; Homo sapiens, COLO-829): 6 µM | IC50 ([1]; Homo sapiens, COLO-829, read-out: Kinase Inhibitor IC50): 6 µM | IC50 ([2]; Homo sapiens, HT-29, read-out: Kinase Inhibitor IC50): 4.7 µM | IC50 ([6]; Homo sapiens, A-375, read-out: Kinase Inhibitor IC50): 4.3 µM | IC50 ([7]; Homo sapiens, A549, read-out: Kinase Inhibitor IC50): 5.5 µM | IC50 ([8]; Homo sapiens, DU-4475, read-out: Kinase Inhibitor IC50): 3.6 µM | IC50 ([12]; Homo sapiens, EOL1, read-out: Kinase Inhibitor IC50): 0.00023 µM | IC50 ([13]; Homo sapiens, MV4-11, read-out: Kinase Inhibitor IC50): 0.0023 µM | GI50 ([14]; Mus musculus, P815): 0.31 µM | IC50 ([14]; Mus musculus, P815, read-out: Kinase Inhibitor IC50): 0.31 µM | IC50 ([9]; Homo sapiens, WM 266-4, read-out: Kinase Inhibitor IC50): 5.4 µM

IC50 [2, 19]: 5.5 µM | IC50 [6, 20]: 43 µM | IC50 [7, 21]: 48 µM | IC50 [9, 23]: 21 µM
Compound: COc1cccc(-c2cc(=O)c3ccccc3o2)c1N [PD 98059]
IC50 [8, 22]: 56 µM

IC50 [1, 17]: 0.038 µM | IC50 [2, 18]: 0.1 µM | IC50 [3]: 1.8 µM | ERK2 Inhibition kinact. (ERK2 [4]): 3.3 ± 0.4 × 10^−3 sec^−1 | Ki (ERK2 [4]; Table 7; read-out: ERK2 Inhibition Ki): 2.2 ± 0.4 µM
Compound: C[C@H]1C/C=C\C(=O)[C@@H](O)[C@@H](O)C[C@H]2O[C@@H]2c2cc(O)cc(O)c2C(=O)O1 [Compound II, 4-O-desmethylhypothemycin]

Compound: C[C@H]1CCCC(=O)CCC/C=C/c2cc(O)cc(O)c2C(=O)O1 [zearalenone]
inhibition of the activation of ERK1/2 [16]: not

Compound: COc1cc(O)c2c(c1)/C=C/C[C@H](O)[C@H](O)C(=O)/C=C\C[C@H](C)OC2=O [(5Z)-7-oxozeaneol]
IC50 (rat MEK1): 0.411 µM
